According to US10851400B2, “Assay for high-throughput identification of therapeutic compounds” (priority 2016, dated 2020):
Values after ≈ are worked out from the molar mass of the structure shown.

Key:
[1] = tested on: Acinetobacter baumanii, ATCC 19606; experiment: Broth minimum inhibitory concentration (MIC) assay of K15; format: cell-based, Acinetobacter baumannii; conditions: A. baumannii; broth MIC in CAMHB, 18-24 hours
Method: (§1) Peptoid K15 was analyzed via a traditional broth minimum inhibitor concentration (MIC) assay against seven different ESKAPE pathogens (Acinetobacter baumanii, ATCC 19606; Enterococcus faecalis, ATCC 29212; Enterococcus faecium, ATCC 19434; Escherichia coli, ATCC 25922; Klebsiella pneumoniae, ATCC 700603; Pseudomonas aeruginosa, ATCC 27853; Staphylococcus aureus, ATCC 29213). For each of the bacterial strains screened in the ESKAPE panel, 1-3 isolated colonies were collected from a TSA plate by a flame sanitized wire loop and resuspended in 5 mL of TSB. The solutions were incubated at 37° C. for 18-24 hours. After the growth period, the turbidity was measured at 600 nm and adjusted to an optical density of 0.08-0.13 by diluting with TSB for an approximate concentration of 1×10^8 CFU/mL. Once the desired OD was achieved, 20 μL of the bacteria suspension were diluted 1:20 in 380 μL Cation Adjusted Mueller-Hinton broth (CAMHB) for a final concentration of 5×10^6 CFU/mL.
(§2) 4 μL of a 10 mM stock of K15 were diluted in […] CAMHB for each bacterial strain assayed (a total of 28 μL stock in 2.478 mL broth for ESKAPE panel). […]
(§3) The prepared plates were incubated for another 18-24 hours. Their respective absorbance at 600 nm was analyzed on a SpectraMax M5 Plate Reader. […] Absorbance at 555, 570, and 585 nm was analyzed to determine viable cells having survived treatment by the antimicrobial compound. […]

ESKAPE pathogens = experiment: Broth MIC assay of K15 against the panel of seven ESKAPE pathogens; format: cell-based; conditions: seven pathogens tested
Method: as §1, §2, §3

E. coli (ATCC 25922) = experiment: PLAD assay, zone of inhibition around beads in soft agar
[2] = tested on: Enterococcus faecium, ATCC 19434; experiment: Broth minimum inhibitory concentration (MIC) assay of K15; format: cell-based; conditions: E. faecium; broth MIC in CAMHB, 18-24 hours
Method: as §1, §2, §3

Row | Compound | MIC [1] | antimicrobial efficacy against the ESKAPE pathogens (ESKAPE pathogens) | zone of inhibition (E. coli (ATCC 25922); proof-of-concept library on PLAD linker, 14 mM TCEP, 37° C. for 18 hours) | MIC [2] | zone of inhibition (E. coli (ATCC 25922); PLAD linked C134mer beads, DTT, BME or TCEP at 0, 2, 6, 10, and 14 mM)
1 | CCCCCCCCCCCCCNCC(=O)N(CCN)CC(=O)N(CC(N)=O)C(C)c1ccccc1 (stereo not drawn) [K15, NTri-Nae-NPea] | 25 µg/mL (≈ 48.3 µM) | modest efficacy against six of the seven pathogens tested | largest average zone of inhibition | 25 µg/mL (≈ 48.3 µM) | –
2 | NTri-NLys-NPea-NPea-NLys [C134mer, reference compound] | – | – | – | – | concentration dependent zones of inhibition
